Common to all, as to assay type: functional
Common to all, as to details: route intraperitoneal

Assay [1] in a line: Macrofilaricidal activity (maf) against Litomosoides carinii in cotton rats at a dose of 30 mg/kg for 5 days by ip administration; Inactive.
Assay [2] is described as follows: Macrofilaricidal activity (maf) against Acanthocheilonema viteae in Mastomys natalensis at a dose of 30 mg/kg for 5 days by ip administration; Inactive.
Assay [3] deals with Rattus norvegicus. Kind of assay: Antifilarial (Microfilariae) activity (mf) against Acanthocheilonema viteae in Mastomys natalensis at a dose of 350 mg/kg for 5 days by ip administration.
Assay [4] is described as follows: Antifilarial (Microfilariae) activity (mf) against Litomosoides carinii in cotton rats at a dose of 30 mg/kg for 5 days by ip administration; Inactive.
For assay [5], the system named is Rattus norvegicus. Description: Antifilarial (Microfilariae) activity (mf) against Litomosoides carinii in cotton rats at a dose of 30 mg/kg for 5 days by ip administration.

Structures are written as SMILES. Some results are limits rather than exact numbers.

Consider `CCN(CC)C(=O)N1CCN(C)CC1.O=C(O)CC(O)(CC(=O)O)C(=O)O` [DIETHYLCARBAMAZINE CITRATE], for which the figures for the Activity (in assay [1]; in assay [2]; in the assay with Rattus norvegicus [3]) were 0, 0 and over 90, respectively.
For the compound `c1coc(C2NCCc3c2[nH]c2ccccc32)c1` (stereo unspecified), the Activity in assay [1] and in assay [4] was 0 throughout.
With `c1csc(-c2nccc3c2[nH]c2ccccc23)c1`, the Activity in assay [1], in assay [2] and in assay [4] was 0 in each case.
`c1csc(C2NCCc3c2[nH]c2ccccc32)c1` (stereo unspecified): the Activity in assay [1] and in assay [4] was 0 each time.
As to `c1c[nH]c(-c2nccc3c2[nH]c2ccccc23)c1`, the Activity in assay [2] is 0; with Rattus norvegicus [5], 73.
As for `c1coc(-c2nccc3c2[nH]c2ccccc23)c1`, the Activity in assay [2] and in assay [4] was 0 each time.
For the compound `c1ccc2c3c([nH]c2c1)C(c1ccsc1)NCC3` (stereo unspecified), the Activity in assay [1] and in assay [4] was 0 each time.

(Values after ChEMBL document CHEMBL1151020, “Synthesis of neoeudistomin analogsAs potential filaricides” (1995).)
